Data: patent publication US20150105252A1, “SUBSTITUTED PYRAZOLES AS HERBICIDES” (E I DU PONT DE NEMOURS AND COMPANY, priority 2013, published 2015)

What was measured:
[1] = test system: wheat; assay: Test A preemergence; type: in vivo, Triticum aestivum; conditions: preemergence; for Wheat plant response rating (0 to 100 scale): visual injury approx. 10 days after treatment
Outline: (§1)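 Pre- and postemergence greenhouse test; loam+sand; cpd in non-phytotox. solvent/surfactant; post at 1–2 leaf, 2–10 cm; visual score ~10 d, 0 = none, 100 = complete control.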

[2] = test system: crabgrass, large; assay: Test A postemergence; type: in vivo, Digitaria sanguinalis
Outline: as §1

[3] = test system: foxtail, giant; assay: Test A postemergence; type: in vivo, Setaria faberii
Outline: as §1

[4] = test system: morningglory; assay: Test A postemergence; type: in vivo, Ipomoea spp.
Outline: as §1

[5] = test system: velvetleaf; assay: Test A postemergence; type: in vivo, Abutilon theophrasti
Outline: as §1

[6] = test system: corn; assay: Test A postemergence; type: in vivo, Zea mays
Outline: as §1

[7] = test system: pigweed; assay: Test C preemergence; type: in vivo, Amaranthus retroflexus
Description: (§2) Seeds of plant species selected from blackgrass (Alopecurus myosuroides), ryegrass, Italian (Italian ryegrass, Lolium multiflorum), wheat (winter wheat, Triticum aestivum), galium (catchweed bedstraw, Galium aparine), corn (Zea mays), crabgrass, large (large crabgrass, Digitaria sanguinalis), foxtail, giant (giant foxtail, Setaria faberii), johnsongrass (Sorghum halepense), lambsquarters (Chenopodium album), morningglory (Ipomoea coccinea), nutsedge, yellow (yellow nutsedge, Cyperus esculentus), pigweed (redroot pigweed, Amaranthus retroflexus), ragweed (common ragweed, Ambrosia elation), soybean (Glycine max), barnyardgrass (Echinochloa crus-galli), oilseed rape (Brassica napus), waterhemp (common waterhemp, Amaranthus rudis), oat, wild (wild oat, Avena fatua), kochia (Kochia scoparia), Surinam grass (Brachiaria decumbens), foxtail, green (green foxtail, Setaria viridis), goosegrass (Eleusine indica), bromegrass, downy (downy bromegrass, Bromus tectorum), nightshade (eastern black nightshade, Solanum ptycanthum), cocklebur (common cocklebur, Xanthium strumarium), cupgrass, woolly (woolly cupgrass, Eriochloa villosa), bermudagrass (Cynodon dactylon), sunflower, (common oilseed sunflower, Helianthus annuus), Russian thistle (Salsola kali), and velvetleaf (Abutilon theophrasti) were planted into a blend of loam soil and sand and treated preemergence with test chemicals formulated in a non-phytotoxic solvent mixture which included a surfactant.
(§3) At the same time, plants selected from these crop and weed species and also chickweed (common chickweed, Stellaria media), canarygrass (littleseed canarygrass, Phalaris minor), and deadnettle (henbit deadnettle, Lamium amplexicaule), were planted in pots containing Redi-Earth® planting medium (Scotts Company, 14111 Scottslawn Road, Marysville, Ohio 43041) comprising spaghnum peat moss, vermiculite, wetting agent and starter nutrients and treated with postemergence applications of test chemicals formulated in the same manner. Plants ranged in height from 2 to 18 cm (1- to 4-leaf stage) for postemergence treatments. Treated plants and controls were maintained in a greenhouse for 13 to 15 days, after which time all species were compared to controls and visually evaluated. Plant response ratings, summarized in Table C, are based on a scale of 0 to 100 where 0 is no effect and 100 is complete control. A dash (-) response means no test result.

[8] = test system: ragweed; assay: Test C preemergence; type: in vivo, Ambrosia elation
Description: as §2, §3

[9] = test system: soybean; assay: Test C preemergence; type: in vivo, Glycine max
Description: as §2, §3

[10] = test system: oilseed rape; assay: Test C preemergence; type: in vivo, Brassica napus
Description: as §2, §3

[11] = Postemergence, 500 g ai/ha, 0 to 100 scale (0 no effect, 100 complete control)
[12] = postemergence, 125 g ai/ha, about 10 days, visual rating on 0 to 100 scale (0 no effect, 100 complete control)
[13] = Postemergence, 125 g ai/ha, 0 to 100 scale, 0 no effect, 100 complete control
[14] = preemergence, 31 g ai/ha, visual rating, scale 0 to 100 (0 no effect, 100 complete control), 13 to 15 days
[15] = preemergence, 62 g ai/ha, scale 0 to 100 (0 no effect, 100 complete control), 13 to 15 days
[16] = preemergence, 125 g ai/ha, 13 to 15 days, scale 0 to 100, 0 = no effect, 100 = complete control
[17] = preemergence, 250 g ai/ha, scale 0 to 100, 0 is no effect, 100 is complete control
[18] = 500 g ai/ha, visual injury after approx. 10 days, 0 to 100 scale (0 no effect, 100 complete control)
[19] = Preemergence, 4 g ai/ha, scale 0 to 100
[20] = Preemergence, 8 g ai/ha, scale 0 to 100
[21] = Preemergence, 16 g ai/ha, scale 0 to 100

Row | SMILES | Wheat plant response rating (0 to 100 scale) ([1]; 125 g ai/ha) | Crabgrass, Large plant response rating [2, 11] | Crabgrass, Large plant response rating [2, 12] | Foxtail, Giant plant response rating [3, 11] | Foxtail, Giant plant response rating [3, 12] | Morningglory plant response rating [4, 11] | Velvetleaf plant response rating [5, 11] | Corn plant response rating [6, 11] | Corn plant response rating [6, 12] | Pigweed plant response rating [7, 14] | Pigweed plant response rating [7, 15] | Plant response rating, Pigweed [7, 16] | Ragweed plant response rating [8, 14] | Ragweed plant response rating [8, 15] | Plant response rating, Ragweed [8, 16] | Soybean plant response rating [9, 14] | Soybean plant response rating [9, 15] | Plant response rating, Soybean [9, 16] | Oilseed Rape plant response rating [10, 14] | Oilseed Rape plant response rating [10, 15] | also measured
1 | CCCc1cc(C(=O)NOC(C)C)nn1Cc1cc(C(F)(F)F)nn1C [Compound 203] | 80 | 90 | 70 | 90 | 80 | 90 | 90 | 100 | 50 | 100 | 100 | 100 | 75 | 80 | 98 | 5 | 5 | 35 | 50 | 100 | Morningglory plant response rating [4, 13]: 50; Velvetleaf plant response rating [5, 13]: 30; Pigweed plant response rating [7, 17]: 100; Ragweed plant response rating [8, 17]: 100; Soybean plant response rating [9, 17]: 55; Plant response rating, Oilseed Rape [10, 16]: 100; Oilseed Rape plant response rating [10, 17]: 100
2 | O=C(NCC(F)(F)F)c1cc(CCF)n(Cc2ccnc(C(F)(F)F)c2)n1 [Compound 175] | 20 | 90 | 90 | 90 | 80 | 90 | 80 | 90 | 60 | 100 | 100 | 100 | 80 | 90 | 98 | 30 | 98 | 98 | 98 | 100 | Wheat plant response rating [1, 18]: 100; Morningglory plant response rating [4, 12]: 80; Velvetleaf plant response rating [5, 12]: 60; Pigweed plant response rating [7, 17]: 100; Ragweed plant response rating [8, 17]: 95; Soybean plant response rating [9, 17]: 98; Plant response rating, Oilseed Rape [10, 16]: 100; Oilseed Rape plant response rating [10, 17]: 100
3 | CCOc1cc(C(=O)NCC(F)(F)F)nn1Cc1cc(C(F)(F)F)nn1C [Compound 140] | – | 90 | 70 | 90 | 80 | 90 | 80 | 80 | 50 | 100 | – | – | 70 | – | – | 25 | – | – | 95 | – | Wheat plant response rating ([1]; 125 g ai/ha, visual injury, 0 to 100 scale, approx. 10 days): 70; Wheat plant response rating [1, 18]: 100; Morningglory plant response rating [4, 12]: 90; Velvetleaf plant response rating [5, 12]: 50; Plant response rating, Pigweed [7, 19]: 80; Plant response rating, Pigweed [7, 20]: 100; Plant response rating, Pigweed [7, 21]: 100; Plant response rating, Ragweed [8, 19]: 5; Plant response rating, Ragweed [8, 20]: 5; Plant response rating, Ragweed [8, 21]: 25; Plant response rating, Soybean [9, 19]: 10; Plant response rating, Soybean [9, 20]: 5; Plant response rating, Soybean [9, 21]: 5; Plant response rating, Oilseed Rape [10, 19]: 5; Plant response rating, Oilseed Rape [10, 20]: 80; Plant response rating, Oilseed Rape [10, 21]: 95
4 | CCNC(=O)c1cc(CCF)n(Cc2ccnc(C(F)(F)F)c2)n1 [Compound 178] | 0 | 90 | 80 | 90 | 70 | 100 | 60 | 90 | 10 | 100 | 100 | 100 | 70 | 85 | 90 | 5 | 40 | 75 | 70 | 80 | Wheat plant response rating [1, 18]: 30; Morningglory plant response rating [4, 12]: 70; Velvetleaf plant response rating [5, 12]: 40; Plant response rating, Pigweed [7, 21]: 45; Plant response rating, Ragweed [8, 21]: 60; Plant response rating, Soybean [9, 21]: 5; Plant response rating, Oilseed Rape [10, 21]: 50; Plant response rating, Oilseed Rape [10, 16]: 98
